The nature of this data set: RP, Thermo Scientific Hypersil GOLD, 1.9 µm, 40 °C, 0.4 mL/min; A: water + 0.1% formic acid, pH 3; B: acetonitrile + 0.1% formic acid, pH 3; gradient (min/%B) 0/0 1/0 11/100 13/100 14/0 16/0. The note with it: stereoisomer not certain.

Counter-ions that a name gives are not always drawn.

For `O=CCc1c[nH]c2ccccc12` [INDOLEACETALDEHYDE], the LC retention time turned out to be 4.34 min.
As to `O=S(=O)(O)Oc1c[nH]c2ccccc12` [INDOXYL SULFATE], the LC retention time was 4.77 min.
Next, `O=c1[nH]cnc2c1ncn2C1OC(CO)C(O)C1O` (configuration not stated) [INOSINE]: 1.53 min; `O=C(O)CC(C(=O)O)C(O)C(=O)O` (configuration not stated) [ISOCITRATE]: 2.37 min.
Next, `CCC(C)C(N)C(=O)O` (configuration not stated) [ISOLEUCINE]: 1.48 min; `C=C(CC(=O)O)C(=O)O` [ITACONATE]: 3.2 min.
Then `Cc1cc(=O)oc(C)c1C(=O)O` [Isodehydracetic acid], with 4.13 min; and `O=C(O)c1cc[n+]([O-])cc1` [Isonicotinic acid N-oxide], with 0.81 min.
For the compound `CC(C)CC(=O)NCC(=O)O` [Isovaleroylglycine], the LC retention time was found to be 4.6 min.
Next, `CC(C)CC(=O)OC(CC(=O)[O-])C[N+](C)(C)C` [Isovaleryl-L-carnitine]: 4.92 min; `Nc1ccccc1C(=O)CC(N)C(=O)O` (configuration not stated) [KYNURENINE]: 3.31 min.
As to `O=C(O)c1cc(=O)c2ccccc2[nH]1` [Kynurenic acid], the LC retention time amounted to 4.67 min.
Then `NC(=O)C[C@H](N)C(=O)O` [L-Asparagine], with 0.62 min; and `O=C1OC(C(O)CO)C(O)C1O` [L-GULONOLACTONE], with 0.66 min; and `N[C@@H](CCC(=O)O)C(=O)O` [L-Glutamic acid], with 0.65 min.
Then `NC(=O)CC[C@H](N)C(=O)O` [L-Glutamine], with 0.62 min; and `NC(=O)[C@@H](N)Cc1c[nH]c2ccccc12` [L-TRYPTOPHANAMIDE], with 4.1 min; and `CCCCCCCCCCCC(=O)OC(CC(=O)[O-])C[N+](C)(C)C` (configuration not stated) [LAUROYLCARNITINE], with 8.63 min.
Then `NC(Cc1cc(I)c(Oc2ccc(O)c(I)c2)c(I)c1)C(=O)O` (configuration not stated) [LIOTHYRONINE], with 6.99 min; and `NC(=O)CCCCC1CCSS1` (configuration not stated) [LIPOAMIDE], with 6.53 min.
Turning to `CC(CCC(=O)O)C1CCC2C3CCC4CC(O)CCC4(C)C3CCC12C` (configuration not stated) [LITHOCHOLATE], the LC retention time worked out at 10.5 min.
`CC(CCC(=O)NCCS(=O)(=O)O)C1CCC2C3CCC4CC(O)CCC4(C)C3CCC12C` (configuration not stated) [LITHOCHOLYLTAURINE]: the LC retention time stood at 8.73 min.
In the case of `NC(CCCC(N)C(=O)O)C(=O)O` (configuration not stated) [LL-2-6-DIAMINOHEPTANEDIOATE], the LC retention time was 0.6 min.
Next, `Cc1cc2nc3[nH]c(=O)[nH]c(=O)c3nc2cc1C` [LUMICHROME]: 6.03 min; `NC(=O)C=CC(=O)O` [MALEAMATE]: 0.82 min.
Next, `O=C([O-])C=CC(=O)[O-]` [MALEATE]: 0.88 min.
Next, `O=C1C=CC(=O)N1` [MALEIMIDE]: 0.84 min; `O=C(O)CC(=O)O` [MALONATE]: 0.83 min; `O=C([O-])C(O)c1ccccc1` (configuration not stated) [MANDELATE]: 4.72 min.
Take `COc1ccc2[nH]cc(CCNC(C)=O)c2c1` [MELATONIN]: the LC retention time stood at 6.09 min.
Next, `OCC1OC(OCC2OC(O)C(O)C(O)C2O)C(O)C(O)C1O` (configuration not stated) [MELIBIOSE]: 0.63 min; `O=C(O)C(=O)CS` [MERCAPTOPYRUVATE]: 0.89 min; `O=C([O-])C(O)C(O)C(=O)[O-]` (stereo not drawn) [MESO-TARTRATE]: 0.71 min.
Next, `O=C(O)C(=O)C(=O)O` [MESOXALATE]: 2.05 min; `CS(=N)(=O)CCC(N)C(=O)O` (configuration not stated) [METHIONINE SULFOXIMINE]: 0.62 min; `COC1OC(CO)C(O)C(O)C1O` (configuration not stated) [METHYL GALACTOSIDE]: 0.74 min.
Next, `COC(=O)c1ccc(O)c(OC)c1` [METHYL VANILLATE]: 6.4 min.

The values are drawn from the RepoRT retention time repository.
